According to patent publication US7622582B2, “Derivatives of 1-phenyl-benzofuro[3,2]pyridin-2(1H)-one” (Tibotec BVBA, priority 2004, dated 2009):

System: HIV
Experiment: Cellular assay: anti-viral activity in HIV-infected MT4 cells (MTT cell viability)
Assay type: cell-based
Settings: Human immunodeficiency virus 1, 120 h, five days incubation, MTT readout, negative logarithm of EC50 (protection of 50% of cells from cytopathogenic effect)
Method: The compounds of the present invention were examined for anti-viral activity in a cellular assay, which was performed according to the following procedure.
HIV- or mock-infected MT4 cells were incubated for five days in the presence of various concentrations of the inhibitor. At the end of the incubation period, the replicating virus in the control cultures has killed all HIV-infected cells in the absence of any inhibitor. Cell viability was determined by measuring the concentration of MTT, a yellow, water soluble tetrazolium dye that is converted to a purple, water insoluble formazan in the mitochondria of living cells only. Upon solubilization of the resulting formazan crystals with isopropanol, the absorbance of the solution was monitored at 540 nm. The values correlate directly to the number of living cells remaining in the culture at the completion of the five day incubation. The inhibitory activity of the compound was monitored on the virus-infected cells and was expressed as EC50 and EC90. These values represent the amount of the compound required to protect 50% and 90%, respectively, of the cells from the cytopathogenic effect of the virus. The toxicity of the compound was measured on the mock-infected cells and was expressed as CC50, which represents the concentration of compound required to inhibit the growth of the cells by 50%. The selectivity index (SI) (ratio CC50/EC50) is an indication of the selectivity of the anti-HIV activity of the inhibitor. Wherever results are reported as e.g. pEC50 or pCC50 values, the result is expressed as the negative logarithm of the result expressed as EC50 or CC50 respectively.
Table 2 lists the pEC50 values obtained in this test for a number of compounds of the invention.

Which EC50 does the source give for Cc1c(C#N)c(=O)n(-c2ccc([N+](=O)[O-])cc2)c2c1oc1cc(O)ccc12 [Compound 6, 7-Hydroxy-4-methyl-1-(4-nitrophenyl)-2-oxo-1,2-dihydro-benzo[4,5]furo[3,2-b]-pyridine-3-carbonitrile] here?
Its EC50 is 3.16 µM.

Cc1c(C#N)c(=O)n(-c2ccc([N+](=O)[O-])cc2)c2c1oc1cccnc12 [Compound 3, 4-Methyl-1-(4-nitrophenyl)-2-oxo-1,2-dihydro-furo[3,2-b;4,5-b′]dipyridine-3-carbonitrile] was tested. Which EC50 did it give?
Its EC50 is 1.58 µM.

With CC(=O)c1ccc(-n2c(=O)c(C)c(C#N)c3oc4ccccc4c32)cc1 [Compound 1, 1-(4-Acetyl-phenyl)-3-methyl-2-oxo-1,2-dihydro-benzo[4,5]furo[3,2-b]pyridine-4-carbonitrile] as the molecule, how does the EC50 read?
Its EC50 is 2.51 µM.

COc1ccc2c(c1)oc1c(C)c(C#N)c(=O)n(-c3ccc([N+](=O)[O-])cc3)c12 [Compound 5, 7-Methoxy-4-methyl-1-(4-nitrophenyl)-2-oxo-1,2-dihydro-benzo[4,5]furo[3,2-b]-pyridine-3-carbonitrile] was tested. Which EC50 did it give?
Its EC50 is 0.398 µM.
